Patent publication US8481546B2, “CGRP receptor antagonist” (Bristol-Myers Squibb Company, priority 2010, dated 2013)
Converted amounts (≈) assume the structure as drawn. Like-named read-outs stand apart in the source and are kept apart here.

Key:
[1] = system: CGRP-induced dilation of ex vivo human intracranial arteries; assay: Schild analysis: inhibition of CGRP concentration-response curve in ex vivo human intracranial artery
Protocol: To assess functional antagonism against a range of CGRP concentrations, Compound I is pre-incubated with individual artery rings in the tissue bath and then a CGRP concentration-response curve is generated to achieve complete dilation (using multiple agonist and multiple antagonist doses). Higher concentrations of antagonist produce a ‘right-shift’ in the CGRP concentration-response curve, requiring greater concentrations of agonist to overcome the presence of antagonist and achieve full dilation. In short, wire mounted artery rings are pre-incubated with antagonist, then contracted with KCl (to mimic endogenous tone), and followed by addition of increasing concentrations of CGRP to achieve full relaxation.
Each wire mounted artery ring is pre-incubated for 30 min with a single concentration (0.1-30 nM) of the antagonist Compound I, then contracted with 10 mM KCl (to mimic endogenous tone), followed by addition of increasing concentrations of CGRP to achieve full relaxation. The KCl contraction is allowed to stabilize, such that total antagonist pretreatment time is approximately 45 min prior to application of CGRP.

[2] = Aqueous solubility, pH dependence; format: physicochemical
Protocol: Solid free base was mixed with carbonate, and ethanolamine buffers. The pH of a third sample was adjusted with HCl. The solids were mixed with the vehicles using a mixer that was enclosed within an incubator set to 25 C. After equilibration, samples of the supernatant were withdrawn, diluted as appropriate, and analyzed by HPLC.
Crystalline Compound I converted to a gelatinous phase during measurement of the pH solubility profile. The absence of a crystalline phase in equilibrium with water prevents a confident assessment of the pH range in which Compound I can be formulated as a thermodynamically stable solution. Efforts to generate a crystalline free base form of Compound I that can be equilibrated in water are ongoing.

[3] = Intravenous exposure in rats (reference for bioavailability); details: rat, in vivo, intravenous administration of 1 mg/kg, read-out: AUC0-24 h
[4] = system: olfactory epithelium (nasal tissues); assay: One-week comparative intranasal irritation study in rats (Compound I vs Compound III): nasal histology and tolerability; format: in vivo; details: for Olfactory Epithelial Atrophy, incidence of severity Marked (number of rats) / Olfactory Epithelial Atrophy, incidence of severity Mild (number of rats) / Olfactory Epithelial Atrophy, incidence of severity Minimal (number of rats) / Olfactory Epithelial Atrophy, incidence of severity Moderate (number of rats) / Olfactory Epithelial Atrophy, incidence of severity None (number of rats): 1 week
Protocol: This study was conducted to compare potential nasal irritation of Compound I to Compound III when given intranasally to male rats for 1 week. Male rats (10/group) were instilled intranasally with Compound I or Compound III solutions ([…] in 225 mM succinic acid, 0.02% benzalkonium chloride, 1.25% anhydrous dextrose, pH 5.8-6.2) once daily at a dose volume of 100 μL/nostril. Using this dosing paradigm, fixed doses of 5, 15 or 35 mg of test article were delivered daily. As a consequence, dosages normalized to body weight decreased with time as the rats grew. One control group was given succinate vehicle and a sham control group was given saline by intranasal instillation. Parameters evaluated included clinical observations, body weight, food consumption, toxicokinetics, and histological evaluation of nasal tissues.

[5] = Pharmacokinetics in the rabbit after IV and IN administration; format: in vivo, New Zealand White rabbits
Protocol: The feasibility of nasal delivery was assessed in the IN rabbit model by comparing the plasma concentration-time profiles and pharmacokinetic parameters (Cmax, Tmax, AUC and bioavailability) for nasally delivered Compound I to that delivered by the IV route. The dosing solution concentration and delivery volume are included in the data tables for each study. Vehicle compositions are described in the footnotes below the table.
Groups of three male New Zealand White rabbits, ranging in weight from 3-3.5 kg, received a single dose of drug in one of the following treatments: 0.5 mg/kg IV bolus injection over 30 seconds, or 0.3-3 mg/kg IN administered with a syringe microsprayer. Prior to IN dosing, rabbits were lightly sedated to effect with the inhalant anesthetic, Sevoflurane. The rabbits regained consciousness in 2-5 min. Serial blood samples were collected in heparin-containing vacutainers at predose, 2, 5, 10, 15, 30 min and 1, 2, 4, 6, and 24 hours post-dose. Blood samples were immediately centrifuged at 4° C. and the separated plasma stored at −80° C. until further analysis by the LC/MS/MS assay.

[6] = system: olfactory epithelium (nasal turbinates); format: in vivo, rats
Source text: Compound I and Compound II were also compared directly for intranasal irritation. […] The only endpoint evaluated in this study was histological evaluation of the nasal turbinates.

[7] = nasal instillation 5 mg (0.357 mg/cm^2) once daily
[8] = nasal instillation 15 mg (1.07 mg/cm^2) once daily
[9] = nasal instillation 35 mg (2.50 mg/cm^2) once daily
[10] = male, New Zealand White, plasma, IV 0.5 mg/kg
[11] = 25 μL/nostril, 75 mg/ml, 3.75 mg/rat/day (0.268 mg/cm^2)
[12] = 25 μL/nostril, 175 mg/ml, 8.75 mg/rat/day (0.625 mg/cm^2)
[13] = 100 μL/nostril, 175 mg/ml, 35 mg/rat/day (2.500 mg/cm^2)

Cc1cc(C[C@@H](NC(=O)N2CCC(c3cc4ccccc4[nH]c3=O)CC2)C(=O)N2CCN(C3CCN(C)CC3)CC2)cc2cn[nH]c12 [Compound I, (R)—N-(3-(7-methyl-1H-indazol-5-yl)-1-(4-(1-methylpiperidin-4-yl)piperazin-1-yl)-1-oxopropan-2-yl)-4-(2-oxo-1,2-dihydroquinolin-3-yl)piperidine-1-carboxamide]
Kb [1]: 0.091 nM
solubility ([2]; Partial titration of Compound I with HCl, pH = 8.5, 25 C): 105000 µg/mL (≈ 164000 µM)
solubility ([2]; aqueous buffer, thermodynamic from solid, Carbonate buffer, pH = 10.4, 25 C, read-out: Solubility): 200 µg/mL (≈ 313 µM)
solubility ([2]; aqueous buffer, thermodynamic from solid, Ethanolamine buffer, pH = 9.4, 25 C, read-out: Solubility): 500 µg/mL (≈ 783 µM)
solubility ([2]; aqueous media, aqueous buffer, thermodynamic from solid, pH < 8.5, 25 C, read-out: Solubility): > 300000 µg/mL
AUC(0-t) [3]: 7.7 µM·h
tolerability of intranasal administration ([4]; male rats, 5, 15 or 35 mg once daily for 1 week): well tolerated
Olfactory Epithelial Atrophy, incidence of severity Marked (number of rats) [4, 7]: 0
Olfactory Epithelial Atrophy, incidence of severity Mild (number of rats) [4, 7]: 0
Olfactory Epithelial Atrophy, incidence of severity Minimal (number of rats) [4, 7]: 1
Olfactory Epithelial Atrophy, incidence of severity Moderate (number of rats) [4, 7]: 0
Olfactory Epithelial Atrophy, incidence of severity None (number of rats) [4, 7]: 8
Olfactory Epithelial Atrophy, incidence of severity Marked (number of rats) [4, 8]: 0
Olfactory Epithelial Atrophy, incidence of severity Mild (number of rats) [4, 8]: 2
Olfactory Epithelial Atrophy, incidence of severity Minimal (number of rats) [4, 8]: 6
Olfactory Epithelial Atrophy, incidence of severity Moderate (number of rats) [4, 8]: 0
Olfactory Epithelial Atrophy, incidence of severity None (number of rats) [4, 8]: 1
Olfactory Epithelial Atrophy, incidence of severity Marked (number of rats) [4, 9]: 0
Olfactory Epithelial Atrophy, incidence of severity Mild (number of rats) [4, 9]: 2
Olfactory Epithelial Atrophy, incidence of severity Minimal (number of rats) [4, 9]: 3
Olfactory Epithelial Atrophy, incidence of severity Moderate (number of rats) [4, 9]: 0
Olfactory Epithelial Atrophy, incidence of severity None (number of rats) [4, 9]: 4
time drug was detected in plasma post-dose ([5]; IN): at least 6 h
time drug was detected in plasma post-dose ([5]; IN, high dose): up to 24 hr
Plasma levels ([5]; IN, measured within 5 min): > 10 nM
MRT [5, 10]: 22.8 ± 9 min
clearance [5, 10]: 7.9 ± 3 mL/min/kg
half-life [5, 10]: 78 ± 15.6 min
AUC ([5]; male, New Zealand White, plasma, IV 0.5 mg/kg, n = 3, Mean ± SD): 1.8 ± 0.58 µM·h
Vd ([5]; male, New Zealand White, plasma, IV 0.5 mg/kg, read-out: Vss): 0.16 ± 0.01 L/kg
Cmax ([5]; male, New Zealand White, plasma, inhaled or intranasal, 0.3 mg/kg, IN low dose 0.3 mg/kg (10 mg/ml), n = 3, Mean ± SD): 120 nM
bioavailability ([5]; male, New Zealand White, plasma, inhaled or intranasal, 0.3 mg/kg, IN low dose 0.3 mg/kg, read-out: Bioavailability (F %)): 12.5 ± 6.56%
Cmax ([5]; male, New Zealand White, plasma, inhaled or intranasal, 1 mg/kg, IN mid-dose 1.0 mg/kg (30 mg/ml), n = 3, Mean ± SD): 550 ± 260 nM
bioavailability ([5]; male, New Zealand White, plasma, inhaled or intranasal, 1 mg/kg, IN mid-dose 1.0 mg/kg, read-out: Bioavailability (F %)): 18.8 ± 8.96%
Cmax ([5]; male, New Zealand White, plasma, inhaled or intranasal, 3 mg/kg, IN high dose 3.0 mg/kg (100 mg/ml), n = 3, Mean ± SD): 2030 ± 1000 nM
bioavailability ([5]; male, New Zealand White, plasma, inhaled or intranasal, 3 mg/kg, IN high dose 3.0 mg/kg, read-out: Bioavailability (F %)): 30.2 ± 10.8%
Cmax ([5]; male, New Zealand White, plasma, inhaled or intranasal, 3 mg/kg, IN, range over 0.3, 1, and 3 mg/kg): 120 to 2000 nM
bioavailability ([5]; male, New Zealand White, plasma, inhaled or intranasal, 3 mg/kg, IN, range over 0.3, 1, and 3 mg/kg, read-out: absolute bioavailability): 13 to 30%
AUC ([5]; male, New Zealand White, plasma, inhaled or intranasal, IN high dose 3.0 mg/kg (100 mg/ml), n = 3, Mean ± SD): 3.27 ± 1.17 µM·h
Tmax ([5]; male, New Zealand White, plasma, inhaled or intranasal, IN high dose 3.0 mg/kg, read-out: Tmax): 19.8 min
AUC ([5]; male, New Zealand White, plasma, inhaled or intranasal, IN low dose 0.3 mg/kg (10 mg/ml), n = 3, Mean ± SD): 0.14 ± 0.07 µM·h
Tmax ([5]; male, New Zealand White, plasma, inhaled or intranasal, IN low dose 0.3 mg/kg, read-out: Tmax): 15 min
AUC ([5]; male, New Zealand White, plasma, inhaled or intranasal, IN mid-dose 1.0 mg/kg (30 mg/ml), n = 3, Mean ± SD): 0.69 ± 0.33 µM·h
Tmax ([5]; male, New Zealand White, plasma, inhaled or intranasal, IN mid-dose 1.0 mg/kg, read-out: Tmax): 15 min
Tmax ([5]; male, New Zealand White, plasma, inhaled or intranasal, IN, all doses studied, read-out: time to reach peak concentrations (Tmax)): 12 to 18 min
Cmax ([5]; male, New Zealand White, plasma, iv, 0.5 mg/kg, IV 0.5 mg/kg, n = 3, Mean ± SD): 13700 ± 1800 nM
Olfactory epithelial toxicity, number of animals with severity None ([6]; 12.5 μL/nostril, 75 mg/ml, 1.875 mg/rat/day (0.134 mg/cm^2)): 5
Olfactory epithelial toxicity, number of animals with severity None ([6]; 12.5 μL/nostril, 175 mg/ml, 4.375 mg/rat/day (0.313 mg/cm^2)): 5
Olfactory epithelial toxicity, number of animals with severity Minimal [6, 11]: 3
Olfactory epithelial toxicity, number of animals with severity None [6, 11]: 2
Olfactory epithelial toxicity, number of animals with severity Minimal [6, 12]: 1
Olfactory epithelial toxicity, number of animals with severity None [6, 12]: 4
Olfactory epithelial toxicity, number of animals with severity Slight ([6]; 100 μL/nostril, 75 mg/ml, 15 mg/rat/day (1.071 mg/cm^2)): 5
Olfactory epithelial toxicity, number of animals with severity Mild [6, 13]: 4
Olfactory epithelial toxicity, number of animals with severity Slight [6, 13]: 1
